The source of these data is PMC4958397, “Synthesis, antibacterial and antiproliferative potential of some new 1-pyridinecarbonyl-4-substituted thiosemicarbazide derivatives” (Medicinal Chemistry Research, 2016).

Broadly, the melting point is the temperature of the solid-liquid transition. The term IC50 denotes the point on the concentration scale where inhibition reaches its midpoint. A word on the MIC: it is the lowest concentration found to suppress growth.

Values after ≈ are worked out from the molar mass of the structure shown. Read-outs that look alike come from different tables or passages of the source.

One data set can be described thus: Cytotoxicity MTT assay. The format is cell-based. The conditions noted are these: human, BJ cells (normal human skin fibroblasts), read-out: CC50 (concentration required for a 50 % reduction of cell viability). The protocol:
(§1) Normal human skin fibroblasts (BJ), human hepatocellular carcinoma (HepG2) and human breast adenocarcinoma (MCF-7) were obtained from American Type Culture Collection (ATCC, England, UK). The cells were cultured in Eagle’s minimum essential medium (EMEM, ATCC) supplemented with 10 % fetal bovine serum (FBS, PAA Laboratories), 100 U/mL penicillin and 100 μg/mL streptomycin (Sigma-Aldrich). In the case of the MCF-7 cell line, the culture medium was additionally supplemented with 0.01 μg/mL of human recombinant insulin (Sigma-Aldrich). The cells were grown in 75-cm^2 flasks and maintained at 37 °C in a humidified atmosphere of 5 % CO2 and 95 % air.
In order to determine the cytotoxicity, BJ cells were seeded in flat-bottom 96-well plates in 100 μL of a complete growth medium at a concentration of 1.7 × 10^4 cells/well and incubated for 24 h at 37 °C in a humidified atmosphere of 5 % CO2. Immediately before drug treatment, the synthesized compounds (1, 2, 4, 5, 6, 7, 10) were dissolved in dimethyl sulfoxide (DMSO, Sigma-Aldrich) and then diluted in cell culture medium supplemented with 2 % FBS. […] After incubation, the growth medium was replaced with 100 μL of the appropriate serial dilutions of the investigated compounds. Untreated cells were used as negative controls, and different concentrations of DMSO were used as the solvent control. The cell cultures were incubated at 37 °C for 24 h. The cytotoxicity was estimated using the 3-(4,5-dimethylthiazol-2-yl)-2,5-diphenyltetrazolium bromide (MTT) assay as described by Mosmann with some modifications (Mosmann, [1983]). Briefly, the cells were incubated for 3 h with 25 μL of MTT solution ([…] in PBS buffer) per well. The MTT assay is a rapid colorimetric method based on the conversion of mitochondrial succinate dehydrogenase from yellow, soluble tetrazolium salt to blue formazan crystals to determine the number of viable cells. In order to dissolve formazan crystals in live cells, 100 μL of SDS-HCl solution (10 % SDS in 0.01 N HCl) was added per well. After overnight incubation, absorbance was measured at 570 nm using microplate reader (BioTek ELx50). The MTT assay was repeated in three independent experiments performed in octuplicates. The half-maximal cytotoxic concentration (CC50) was defined as the compound concentration (μg/mL) required to reduce cell viability to 50 %. Therapeutic index (TI) is a widely accepted parameter to represent the specificity of antibacterial agents for human (Begg et al., [1999]). In this study, the in vitro TI values were calculated as the ratio of CC50 (cytotoxic activity) and MIC (antibacterial activity); thus, greater values of in vitro therapeutic index indicate safer specificity for eukaryotic cells.
The data were analyzed using one-way ANOVA test followed by Dunnett’s test. Differences were considered as significant with p < 0.01 (GraphPad Prism 5, Version 5.04 Software). The values of CC50 and IC50 were calculated via 4-parameter nonlinear regression analyses using GraphPad Prism 5, version 5.04.

Data set [1] relates to HepG2 (human hepatocellular carcinoma). The data set can be described thus: Cell proliferation MTT assay. The format is cell-based. The conditions noted are these: 96 h; for IC50: Homo sapiens, HepG2, MTT, read-out: IC50, antiproliferative activity, HepG2. The protocol:
as §1
(§2) In order to evaluate cell proliferation, the cells were seeded in flat-bottom 96-well plates in 100 μL of a complete growth medium at a concentration of 2 × 10^3 cells/well (BJ), 1.5 × 10^4 cells/well (HepG2) and 2.5 × 10^4 cells/well (MCF-7) and incubated for 24 h at 37 °C in a humidified atmosphere of 5 % CO2. Before drug exposure, the synthesized compounds (1–10) were dissolved in DMSO and then diluted in a complete culture medium supplemented with 10 % FBS. Subsequently, the growth medium was gently removed and the cells were exposed to 100 μL of serial dilutions of the investigated compounds at concentrations ranging from 0.05 to 200 μg/mL. Untreated cells were used as negative controls, and different concentrations of DMSO were used as the solvent control. After 96-h incubation at 37 °C in a humidified atmosphere of 5 % CO2, cell proliferation was assessed using the MTT test as described previously (Cytotoxicity assay). The MTT assay was repeated in three independent experiments in quadruplicates. The half-maximal inhibitory concentration (IC50) was defined as the compound concentration (μg/mL) required to inhibit cell proliferation to 50 %.
(§3) The results of the in vitro cell culture experiments were presented as mean values ± standard deviation (SD) or as mean values ± standard error of the mean (SEM). The data were analyzed using one-way ANOVA test followed by Dunnett’s test. Differences were considered as significant with p < 0.01 (GraphPad Prism 5, Version 5.04 Software). The values of CC50 and IC50 were calculated via 4-parameter nonlinear regression analyses using GraphPad Prism 5, version 5.04.
(Tetrazolium assays rely on reduction of a dye to a coloured formazan, in cell work by metabolically active cells.)

Data set [2] deals with BJ (normal human skin fibroblasts). The data set can be described thus: Cell proliferation MTT assay. In kind it is cell-based. The conditions noted are these: 96 h; for IC50: Homo sapiens, Skin fibroblast, MTT, mean ± SD, read-out: IC50, antiproliferative activity, BJ. As to the method:
as §1, §2, §3

Data set [3] concerns pathogenic microaerobic bacteria (causing dental caries). The experiment in a line: Broth microdilution MIC, summary in text. The format is cell-based. As to conditions: range over compounds and strains; read-out: MIC against pathogenic microaerobic bacteria. The source says:
Panel reference strains of bacteria from the American Type Culture Collection or Polish Collection of Microorganisms, including aerobic Gram-positive bacteria: Staphylococcus aureus ATCC 25923 and Staphylococcus epidermidis ATCC 12228, and aerobic Gram-negative bacteria: Escherichia coli ATCC 25922 and Pseudomonas aeruginosa ATCC 9027, as well as microaerobic Gram-positive bacteria: Lactobacillus spp., Lactobacillus acidophilus PCM 2105, Streptococcus mutans PCM 2502 and Streptococcus sanguinis PCM 2335, were used. Microbial suspensions with an optical density of 0.5 McFarland standard at 1.5 × 10^8 CFU/mL (CFU: colony forming unit) were prepared in sterile 0.9 % NaCl. Mueller–Hinton (M–H) broth and M–H agar (Oxoid Ltd., England) for aerobic strains, and MRS Broth Lactobacillus, MRS Agar Lactobacillus (BioMaxima S.A., Poland), BHI Broth and BHI agar (BioMaxima S.A., Poland) for microaerobic strains were used in the microbial tests.
A broth microdilution method was used to evaluate the minimum inhibition concentration (MIC) according to the CLSI document (CLSI performance standards for antimicrobial susceptibility testing, 2008, Eighteenth International Supplement, CLSI document M7-MIC, Clinical Laboratory Standards Institute, Wayne) with some modifications. […] A serial doubling dilution of the compounds was prepared in 96-well plates (200 μL per well). A suitable medium (M-H Broth, MRS Broth Lactobacillus, BHI Broth) was used as a diluent. The final concentrations of derivatives were 1000–0.015 μg/mL. Finally, 2 μL of inoculum of the tested bacterial strain (1.5 × 10^8 CFU/mL) was added to each well. The tests were performed either at 36 °C for 18 h (aerobic strains) or at 40 h (microaerobic strains). After incubation, the panel was digitally analyzed at 600 nm using the microplate reader Bio Tech Synergy (USA) with a dedicated software system. The growth intensity in each well was compared with the negative and positive controls.

The mark [4] stands for this setting: 10 μg/mL, proliferation reduced to.

Regarding `[H]/N=C(\N/C(=N/[H])NCCCCCCNC(=N)NC(=N)Nc1ccc(Cl)cc1)Nc1ccc(Cl)cc1` [CLX, chlorhexidine digluconate, reference compound], in “Cytotoxicity MTT assay”, the CC50 at 24 h is 8.46 µg/mL.
Molecule `O=C(NNC(=S)Nc1ccccc1Cl)c1ccccn1` [Compound 2, 4-(2-Chlorophenyl)-1-(pyridin-2-yl)carbonylthiosemicarbazide] returned a melting point of 172 to 174 °C. Besides, the “cell proliferation compared to the control, HepG2” value in data set [1] (setting [4]) was 18.9%. In data set [1] (mean ± SD), the IC50 was determined as 2.71 ± 0.23 µg/mL. For the same molecule, in data set [2] (setting [4]), the “cell proliferation compared to the control, BJ” value came out at 32%. Besides, in data set [2], the IC50 amounted to 3.06 ± 0.46 µg/mL (≈ 9.97 µM). Moreover, the minimum inhibitory concentration (MIC) in data set [3] is 7.81 to 500 µg/mL.
On to `O=C(NNC(=S)Nc1ccc(Cl)cc1Cl)c1ccccn1` [Compound 4, 4-(2,4-Dichlorophenyl)-1-(pyridin-2-yl)carbonylthiosemicarbazide], for which the melting point was 158 to 160 °C. In data set [1] (mean ± SD), the IC50 worked out at 2.09 µg/mL. Besides, the IC50 in data set [1] (same value in µM) came to 6.12 µM. Also, the IC50 in data set [2] was 1.86 ± 0.44 µg/mL (≈ 5.45 µM). Besides, in the data set “Cytotoxicity MTT assay”, the CC50 at 24 h is 19.5 µg/mL (≈ 57.1 µM). Moreover, in data set [3], the MIC is 7.81 to 500 µg/mL.
Take `CSc1ccc(NC(=S)NNC(=O)c2cccnc2)cc1` [Compound 6, 4-(4-Methylthiophenyl)-1-(pyridin-3-yl)carbonylthiosemicarbazide]: the melting point was in the range of 176 to 177 °C. In addition, in the data set “Cytotoxicity MTT assay”, the CC50 at 24 h is 917 µg/mL (≈ 2880 µM).
The corresponding values for `O=C(NNC(=S)Nc1ccc(Cl)cc1Cl)c1cccnc1` [Compound 7, 4-(2,4-Dichlorophenyl)-1-(pyridin-3-yl)carbonylthiosemicarbazide] are 196 to 197 °C and 88.3 µg/mL (≈ 259 µM).
As to `CCOc1ccc2nc3cc(N)ccc3c(N)c2c1` [Ethacridine lactate, ethacridine lactate, reference compound], the CC50 at 24 h in “Cytotoxicity MTT assay” stood at 6.88 µg/mL.
